{"source": "patent US6849603B1", "about": "“Peptides for inhibition of apoptosis and pharmaceutical compositions containing them” (NSS T Neurosurvival Technologies Ltd., priority 1998, dated 2005)", "key": {"HeLa cells [1]": {"tested_on": "HeLa cells", "assay": "Dopamine-induced cell death in HeLa cells (beta-galactosidase reporter viability)", "assay_type": "cell-based, Human", "conditions": "18 hours; for cell survival rate: P<0.001", "description": "(§2) Models of Apoptosis: • Three model systems of cell death were used: • 1. […] Apoptosis induced by Bax. This model utilizes an in vitro assay system for regulation of cell death by the Bcl-2 family of proteins: Cells were grown as described above in example 3a. Cells from log phase of growth were harvested using trypsin/EDTA and resuspended at a density of 5.0×10^6 cells/ml in 400 μl PBS. Cell suspension was then transferred to electroporation chambers containing a marker plasmid (pCDNA/Lac z) encoding beta-galactosidase as a reporter gene (10 μg)+a control plasmid (pCDNA), to bring total plasmid quantity to 23 micrograms+one of the following regimens: • 1. An expression plasmid, encoding Bcl-2 (0.42 μg) • 2. An expression plasmid, encoding Bax (0.42 μg). • 3. Bcl-2-encoding plasmid+Bax-encoding plasmid (0.42 μg each). • 4. Test compound, or an expression plasmid encoding for the test peptide+either Bcl-2-encoding plasmid or Bax-encoding plasmid or both. • 5. Control: only the marker plasmid.\nCell viability was then evaluated by the measurement of the beta-galactosidase activity, as specified above.\nSynthetic DIP1 was introduced into HeLa cells with a beta-galactosidase reporter plasmid by electroporation. […] Cell viability was then evaluated by measurement of the beta-galactosidase activity."}, "HeLa cells [2]": {"tested_on": "HeLa cells", "assay": "In vitro assay system for regulation of cell death by the Bcl-2 family (Bax-induced cell death, electroporation, beta-galactosidase reporter)", "assay_type": "cell-based, Human", "conditions": "for cell viability as compared to controls: expression plasmid transfected alone by electroporation, 18 hours post-transfection", "source_text": "This assay is based on transient transfection of cultured cells (e.g., HeLa cells, SH-SY5Y neuroblastoma cells. PC12, pheochromocytoma cells, 293 kidney cells, primary neuronal cells etc.), via electroporation or cationic-lipid-mediated transfection, by an expression vector, harboring a reporter gene (e.g. the gene encoding for beta-galactosidase, or the gene encoding for luciferase). Based on the consideration that gene expression requires high level of function and integrity of cellular systems, a direct correlation can be drawn between the activity of the protein encoded by the reporter gene, and the survival rates of the transfected cells. The reporter gene is co-transfected with a second expression vector, carrying either the bcl-2 or bax genes, therefore affecting the cellular apoptotic threshold towards life or death, respectively. In addition, transfection of cells with a combination of both bcl-2 and bax genes is performed, to examine the activity of each of these two proteins in opposing the death-inhibitory or promoting-effect of the other, respectively.\n(§1) a. Cell cultures: • 1. HeLa cells: Human cervical carcinoma cells (HeLa) were grown in Dulbecco's modified Eagle's medium (DMEM), supplemented with 10% fetal calf serum (FCS) and 1% penicillin-streptomycin-Nystatin solution (Biological Industries, Israel), and 1% L-Glutamine solution (2 mM, biological Industries, Israel). Cells were grown in monolayer at 37° C. in 5% CO2. • 2. Kidney 293 cells (T): Human embryonic kidney 293 cells were grown in the conditions described for the HeLa cells.\nb. Models of Apoptosis: • Three model systems of cell death were used: • 1. Apoptosis induced by dopamine: Exposure of cells to dopamine at 100-500 micromolar for 24 hours induces cell death characteristic of apoptosis (Ziv I, et al., Neurosci Lett 170:136-140, 1994; Offen D, et al., Biochim Biophys Acta 1268:171-177, 1995; Masserano J M, et al., Mol Pharmacol 50:1309-1315, 1996; Shirvan A, et al., J. Neurochem 69:539-549, 1997; Corona V., et al., J. Neurochem 69:1870-1881, 1997; Velez-Pardo C, et al., Pharmacol Toxicol 80:76-84, 1997; Shinkai T, et al., J Neurosci Res. 393-399, 1997; Simantov R, et al., Neuroscience 74:39-50, 1996; Gabby M, et al., Neuropharmacology 35:571-578, 1996). […] Apoptosis induced by Bax. This model utilizes an in vitro assay system for regulation of cell death by the Bcl-2 family of proteins: Cells were grown as described above in example 3a. Cells from log phase of growth were harvested using trypsin/EDTA and resuspended at a density of 5.0×10^6 cells/ml in 400 μl PBS. Cell suspension was then transferred to electroporation chambers containing a marker plasmid (pCDNA/Lac z) encoding beta-galactosidase as a reporter gene (10 μg)+a control plasmid (pCDNA), to bring total plasmid quantity to 23 micrograms+one of the following regimens: • 1. An expression plasmid, encoding Bcl-2 (0.42 μg) • 2. An expression plasmid, encoding Bax (0.42 μg). • 3. Bcl-2-encoding plasmid+Bax-encoding plasmid (0.42 μg each). • 4. Test compound, or an expression plasmid encoding for the test peptide+either Bcl-2-encoding plasmid or Bax-encoding plasmid or both. • 5. Control: only the marker plasmid.\nAfter one minute of incubation, electroporation was performed at 1050 μF and 220 V for a duration of 10-30 ms, using an Equibio gene pulser. Cells from the cuvettes were then pooled into a complete medium with 10% FCS, and 1×10^6 cells were aliquoted into 3.5 cm plates. At 18 hours post-transfection, cell viability was assessed through measurement of beta-galactosidase activity by standard methods (Sambrook, Fritch, Maniatis, Molecular cloning; A laboratory manual, Cold Spring Harbour Laboratory Press, pp 16.66, 1989). OD values were expressed as percent of control, and statistical significance was evaluated by appropriate parametric or non-parametric statistical tests.\nMethods: An expression plasmid, encoding the DIP1 (synthesized as described above in Example 2) was used. […]"}, "HeLa cells [3]": {"tested_on": "HeLa cells", "conditions": "18 hours", "description": "as §2\nCell viability was then evaluated by determining beta-galactosidase activity."}, "[4]": {"tested_on": "embryonic kidney 293T cells", "assay": "Cell-killing effect of Bax on embryonic kidney 293T cells (beta-galactosidase reporter)", "assay_type": "cell-based, Human", "conditions": "expression plasmids encoding Bax and DIP1, Superfect transfection, 18 hours", "method": "as §1\nMethods: Human embryonic kidney 293T cells were grown as specified in Example 3.a. Cells were co-transfected using the Superfect Transfection Kit (Quiagen), with 5 μg total DNA of the following effectors: pCDNA/Lac-z reporter plasmid and one of the following:\n• 1). Expression plasmid encoding DIP1. • 2). Expression plasmid encoding Bax. • 3). Expression plasmids, encoding Bax and DIP1.\nAfter 18 hours, the cells were harvested for beta-galactosidase activity assay.\nHuman embryonic kidney 293T cells were co-transfected by […] with a reporter plasmid encoding beta-galactosidase, in combination with either an expression plasmid encoding DIP1; an expression plasmid encoding Bax; or expression plasmids encoding Bax and DIP1. Cell viability was evaluated after 18 hours, by measurement of beta-galactosidase activity."}}, "note": "Like-named read-outs stand apart in the source and are kept apart here."}
{"compound": "NCCc1ccc(O)c(O)c1", "note": "[dopamine, reference compound]", "values": [{"measurement": "cell survival", "setting": "HeLa cells [1]; dopamine 150 μM alone", "value": "30.8 ± 6.0% of control"}, {"measurement": "cell survival", "setting": "HeLa cells [1]; dopamine 300 μM alone", "value": "8.4 ± 7.0% of control"}]}
{"compound": "Bax: death-inducing Bcl-2 family protein, expressed from a transfected expression plasmid", "values": [{"measurement": "cell survival rate", "setting": "HeLa cells [2]; Bax-encoding plasmid alone, 18 hours", "value": "37.0 ± 2.2", "unit": "%"}, {"measurement": "cell viability as compared to controls", "setting": "HeLa cells [2]", "value": "marked death-inducing effect"}]}
{"compound": "H-FELRYRRAF-OH [DIP1, Phe-Glu-Leu-Arg-Tyr-Arg-Arg-Ala-Phe]", "values": [{"measurement": "cell survival rate", "setting": "HeLa cells [2]; co-transfection of DIP1-encoding plasmid with Bax-encoding plasmid, 18 hours, p<0.001", "value": "71.4 ± 9.4 % of control"}, {"measurement": "cell viability as compared to controls", "setting": "HeLa cells [2]", "value": "markedly enhanced cell viability"}, {"measurement": "cell survival rate", "setting": "HeLa cells [3]; synthetic DIP1 by electroporation + hydrogen peroxide 100 μM, p<0.001", "value": "53.3±8.8", "unit": "%"}, {"measurement": "cell survival rate", "setting": "HeLa cells [3]; synthetic DIP1 by electroporation + hydrogen peroxide 200 μM, p<0.001", "value": "33.4±3.7", "unit": "%"}, {"measurement": "cell survival rate", "setting": "HeLa cells [1]; synthetic DIP1 by electroporation + dopamine 150 μM", "value": "75.4+9.0%"}, {"measurement": "cell survival rate", "setting": "HeLa cells [1]; synthetic DIP1 by electroporation + dopamine 300 μM", "value": "40.2+8.0%"}, {"measurement": "counteracting Bax toxicity", "setting": "[4]", "value": "markedly active in counteracting Bax toxicity"}]}
{"compound": "Bcl-2: death-inhibitory protein, expressed from a transfected expression plasmid", "values": [{"measurement": "cell-killing effect of Bax on co-transfection", "setting": "HeLa cells [2]; co-transfection with Bax-encoding plasmid, 18 hours", "value": "markedly counteracted"}, {"measurement": "cell viability as compared to controls", "setting": "HeLa cells [2]", "value": "increases cell viability"}]}
{"compound": "OO", "note": "[hydrogen peroxide, reference compound]", "values": [{"measurement": "cell survival rate", "setting": "HeLa cells [3]; hydrogen peroxide 100 μM alone, mean±SD", "value": "20.4±2.8% of control"}, {"measurement": "cell survival rate", "setting": "HeLa cells [3]; hydrogen peroxide 200 μM alone, mean±SD", "value": "5.8±2.1% of control"}]}
